Experimental data: the supplement of paper PMC10307832

Key:
Assay in all cases: relative viability (nuclei count vs DMSO), 5 days (fraction); higher = more cells survive
Ispinesib + Vorinostat = compound: Cc1ccc(C(=O)N(CCCN)[C@@H](c2nc3cc(Cl)ccc3c(=O)n2Cc2ccccc2)C(C)C)cc1 [Ispinesib] + O=C(CCCCCCC(=O)Nc1ccccc1)NO [Vorinostat] (partner 1 µM)
Method in brief: (§1)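 Lung cancer cell lines in 1536-well plates got either a single drug or a fixed anchor-drug dose together with five library-drug doses (not always all listed) in √10 steps, by pin tool, on the day after seeding. Nuclei were counted after 5 days, and relative viability is the treated-to-vehicle ratio of nuclei counts. Values are medians of duplicate plates.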

Ispinesib + Pemetrexed = compound: Cc1ccc(C(=O)N(CCCN)[C@@H](c2nc3cc(Cl)ccc3c(=O)n2Cc2ccccc2)C(C)C)cc1 [Ispinesib] + Nc1nc2[nH]cc(CCc3ccc(C(=O)N[C@@H](CCC(=O)O)C(=O)O)cc3)c2c(=O)[nH]1 [Pemetrexed] (partner 0.2 µM)
Method in brief: as §1

Linsitinib + Alpelisib = compound: C[C@]1(O)C[C@@H](c2nc(-c3ccc4ccc(-c5ccccc5)nc4c3)c3c(N)nccn32)C1 [Linsitinib] + Cc1nc(NC(=O)N2CCC[C@H]2C(N)=O)sc1-c1ccnc(C(C)(C)C(F)(F)F)c1 [Alpelisib] (partner 2 µM)
Method in brief: as §1

Linsitinib + Palbociclib = compound: C[C@]1(O)C[C@@H](c2nc(-c3ccc4ccc(-c5ccccc5)nc4c3)c3c(N)nccn32)C1 [Linsitinib] + CC(=O)c1c(C)c2cnc(Nc3ccc(N4CCNCC4)cn3)nc2n(C2CCCC2)c1=O [Palbociclib] (partner 0.5 µM)
Method in brief: as §1

Cell Line	relative viability (Ispinesib + Vorinostat; first compound 0.001 µM)	relative viability (Ispinesib + Vorinostat; first compound 0.003162 µM)	relative viability (Ispinesib + Vorinostat; first compound 0.01 µM)	relative viability (Ispinesib + Vorinostat; first compound 0.03162 µM)	relative viability (Ispinesib + Vorinostat; first compound 0.1 µM)	relative viability (Ispinesib + Pemetrexed; first compound 0.001 µM)	relative viability (Ispinesib + Pemetrexed; first compound 0.003162 µM)	relative viability (Ispinesib + Pemetrexed; first compound 0.01 µM)	relative viability (Ispinesib + Pemetrexed; first compound 0.03162 µM)	relative viability (Ispinesib + Pemetrexed; first compound 0.1 µM)	relative viability (Linsitinib + Alpelisib; first compound 0.01 µM)	relative viability (Linsitinib + Alpelisib; first compound 0.03162 µM)	relative viability (Linsitinib + Alpelisib; first compound 0.1 µM)	relative viability (Linsitinib + Alpelisib; first compound 0.3162 µM)	relative viability (Linsitinib + Alpelisib; first compound 1 µM)	relative viability (Linsitinib + Palbociclib; first compound 0.01 µM)	relative viability (Linsitinib + Palbociclib; first compound 0.03162 µM)	relative viability (Linsitinib + Palbociclib; first compound 0.1 µM)	relative viability (Linsitinib + Palbociclib; first compound 0.3162 µM)	relative viability (Linsitinib + Palbociclib; first compound 1 µM)
NCI-H23	0.542	0.619	0.647	0.419	0.21	0.68	0.785	0.726	0.522	0.207	0.728	0.577	0.582	0.448	0.516	0.519	0.415	0.415	0.326	0.313
LOU-NH91	0.91	1.04	0.939	0.247	0.236	0.387	0.428	0.384	0.374	0.323	0.743	0.656	0.7	0.76	0.602	0.513	0.539	0.484	0.529	0.549
NCI-H2009	0.859	0.732	0.746	0.72	0.213	1.13	1.06	1.03	0.936	0.44	1.17	1.17	1.2	1.03	1.13	0.119	0.203	0.19	0.105	0.24
NCI-H358	0.977	0.752	0.744	0.703	0.196	0.176	0.146	0.17	0.169	0.135	0.794	0.804	0.734	0.471	0.479	0.144	0.14	0.121	0.113	0.107
NCI-H2126	0.754	0.867	0.932	0.789	0.289	0.672	0.669	0.768	0.647	0.303	0.726	0.801	0.743	0.682	0.717	0.345	0.365	0.347	0.352	0.334
NCI-H1437	0.967	0.837	0.922	0.878	0.219	0.31	0.334	0.329	0.347	0.238	0.977	0.955	0.986	0.901	0.903	0.291	0.33	0.321	0.276	0.346
SK-LU-1	0.709	0.763	0.911	0.615	0.506	1.07	0.972	1.27	0.897	0.412	0.975	0.908	1.03		1.09	0.436	0.303	0.394	0.391	0.384
NCI-H838	0.738	0.726	0.739	0.625	0.238	0.255	0.248	0.248	0.252	0.148	1	0.979	1.05	0.853	0.755	0.23	0.207	0.17	0.19	0.162
